Measurements: patent publication US20240398767A1, “INHIBITORS OF THE MTDH-SND1 PROTEIN COMPLEX FOR CANCER THERAPY” (The Trustees of Princeton University, priority 2021, published 2024)

System: PyMT tumor immune microenvironment
Test: Immune cell profiling of orthotopic PyMT tumors and lungs by flow cytometry
Format: in vivo, FVB females
Conditions: six weeks after treatment
Description: FIGS. 35A-35C show C26-A6 combined with anti-PD-1 treatment reshapes the tumor immune microenvironment. For FIGS. 35A-35C, 100 k PyMT tumor cells were orthotopically injected into the mammary glands of FVB females. The mice were randomized and divided into three groups when primary tumors were established, followed by vehicle, C26-A6, or C26-A6+anti-PD-1 treatment. Six weeks after treatment, primary tumors and lung with metastatic lesions were collected for flow analysis with indicated antibodies. Anti-PD-1, 200 μg/mouse i.p. injection, twice per week for the first week and then once per week after that; C26-A6, 15 mg/kg i.v. injection, 5 days per week. n=6 mice per group. Data represent mean±SEM. Significance determined by one-way ANOVA analysis with Dunnett's test for multiple comparisons.
FIG. 35A, Percentages of CD11b^+F4/80^+, Ly6G^lowLy6C^high, Ly6G^highLy6C^low, CD3-NK1.1^+ in CD45^+ population and percentage of CD4^+FOXP3^+ in CD3^+ population are shown.
FIG. 35B, Percentages of GITR^+LAG-3^+ in CD8^+ population are shown.
Flow cytometry. Dissociated tumors or lungs were dissected and prepared as previously described^10. […]. Organoids were sequentially suspended with 0.25% trypsin-EDTA for 1.5 min, 5 mg/ml Dispase (Invitrogen), and 0.1 mg/ml DNase (Sigma) for 5 min, and 0.64% ammonium chloride for 5 min at 37° C. before filtration through a 40 μm nylon cell strainer. Tumor or lung cell suspensions were incubated with an antibody cocktail in FACS buffer (PBS+3% BSA) for 30 minutes at 4° C., washed, and resuspended in FACS buffer for flow analysis. Isotype controls were used to assess specificity of antibody labeling. […] Samples were analyzed with BD FACSDiva v6 software and data was processed with FlowJo v10 software. […]

COc1ccc(Cl)cc1S(=O)(=O)Nc1cccn2nc(C)nc12 [Analog C26-A6]
CD8+ T cell exhaustion (GITR+LAG-3+ in CD8+ population): elevated CD8^+ T cell exhaustion
infiltration of Ly6GhighLy6Clow sub-population of MDSCs: reduced
infiltration of Ly6GlowLy6Chigh sub-population of MDSCs: significantly enhanced
populations of macrophages, NK cells and regulatory T cells: not significantly altered
